According to patent US8722887B2, “Sulfonylpyrazole and sulfonylpyrazoline carboxamidine derivatives as 5-HT6 antagonists” (Abbvie Bahamas, Ltd., priority 2006, dated 2014):
Read-outs that look alike come from different tables or passages of the source.

Experiments:
5-HT6 receptor [1] = molecular target: T1, 5-HT6 receptor (Homo sapiens, UniProt P50406); test: In vitro affinity for human 5-HT6 receptors, [3H]-LSD binding in CHO cell membranes; parameters: host or cells: CHO/Gα16/mtAEQ/h5HT6-A1 (CHO AequoScreen recombinant cell line)
Experimental: Affinity for human 5-HT6 receptors was measured in a membrane preparation of CHO-cells transfected with human 5-HT6 receptors by binding studies using [^3H]-N-Methyl-Lysergic acid diethylamide ([^3H]-LSD) as ligand. […] CHO/Gα16/mtAEQ/h5HT6-A1 cells were grown in T-flasks in CHO-S-SFM II medium (Gibco BRL), supplemented with 1% dialysed FCS, 2 mM L-glutamine, Geneticin 500 μg/ml and Zeocin 200 μg/ml. […] After thawing cells were centrifuged during 3 minutes at 1500 g at 4° C. […] The assay was established so as to achieve steady state conditions and to optimize specific binding. For the 5-HT6 receptor, membranes from 5.10^5 cells were incubated with 5.0 nM [^3H]-LSD at 37° C. for 30 minutes. Nonspecific binding was determined using 10^−5 M serotonin. Assays were terminated by vacuum filtration through glass fiber filters (GF/B) which had been pretreated with 0.5% polyethyleneimine. Total and bound radioactivity was determined by liquid scintillation counting. […] Compounds were tested at a 4 log concentration range; all determinations were performed as triplicates. IC50 values were determined by non-linear regression analysis using Hill equation curve fitting. The inhibition constants (Ki-values) were calculated from the Cheng-Preushoff equation: Ki=IC50:(1+L/Kd) wherein L represents the concentration radioligand ([^3H]-LSD) in the assay, and Kd the affinity of the radioligand for the receptor. Results are expressed as pKi-values, means±SD of at least three separate experiments.

5-HT6 receptor [2] = molecular target: T1, 5-HT6 receptor; test: In vitro functional activity (antagonism) on human 5-HT6 receptors, CHO-human-5HT6-Aequorin assay; assay type: cell-based; parameters: host or cells: CHO/Gα16/mtAEQ/h5HT6-A1 (CHO AequoScreen recombinant cell line)
Experimental: Human-5-HT6-Aequorin cells express mitochondrial targeted apo-Aequorin. Cells have to be loaded with coelanterazine, in order to reconstitute active Aequorin. […] This luminescent response is dependent on the agonist concentration. Luminescence is measured using the MicroBeta Jet (Perkin Elmer). Agonistic effects of compounds are expressed as pEC50. […] Compounds were tested at a 5 log concentration range, and 3 independent experiments were performed in duplicate.

[3] = [3H]-LSD 5.0 nM, membranes of CHO cells transfected with human 5-HT6, read-out: 5-HT6 pKi (converted)
[4] = antagonism of 10^-8 M α-methylserotonin induced luminescence, CHO-human-5HT6-Aequorin cells, read-out: 5-HT6 pA2 (converted)
[5] = antagonism of 10^-8 M α-methylserotonin induced luminescence, CHO-human-5HT6-Aequorin cells

T1 sequence (P50406 whole entry): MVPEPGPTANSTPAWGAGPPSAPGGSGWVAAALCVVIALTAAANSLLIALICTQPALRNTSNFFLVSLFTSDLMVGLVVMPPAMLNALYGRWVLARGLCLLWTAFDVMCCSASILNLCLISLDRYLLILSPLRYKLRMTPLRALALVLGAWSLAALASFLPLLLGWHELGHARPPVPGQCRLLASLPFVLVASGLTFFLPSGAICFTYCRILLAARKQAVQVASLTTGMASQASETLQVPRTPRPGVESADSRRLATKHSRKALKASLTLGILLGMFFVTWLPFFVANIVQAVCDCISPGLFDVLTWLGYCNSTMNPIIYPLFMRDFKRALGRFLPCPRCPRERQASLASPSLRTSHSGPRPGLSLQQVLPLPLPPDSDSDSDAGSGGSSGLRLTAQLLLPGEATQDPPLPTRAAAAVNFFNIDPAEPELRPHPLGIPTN

Row | SMILES | melting point [°C] | Ki (5-HT6 receptor [1]; [3]) [nM] | further results
1 | CN/C(=N\S(=O)(=O)c1ccc(F)cc1)N1CCC(c2ccc(Cl)cc2)=N1 | 188 to 189 | – | –
2 | CCN/C(=N\S(=O)(=O)c1ccc(Cl)cc1)N1CC(CC)C=N1 (stereo not drawn) | 84 to 86 | – | –
3 | CCN/C(=N\S(=O)(=O)c1cccc2ccccc12)N1CC(CC)C=N1 (stereo not drawn) | 79 to 80 | – | –
4 | CCN/C(=N\S(=O)(=O)c1ccccc1Cl)N1CCC(CC)=N1 | 91 to 93 | – | –
5 | CCN/C(=N\S(=O)(=O)c1cccc(Cl)c1)N1N=CC(CC)C1c1ccccc1 (single isomer, unassigned) [cis(+)-153] | – | 1260 | –
6 | CCN/C(=N\S(=O)(=O)c1cccc(Cl)c1)N1N=CC(CC)C1c1ccccc1 (single isomer, unassigned) [cis(−)-153] | – | 50.1 | –
7 | CCN/C(=N\S(=O)(=O)c1cccc(Cl)c1)N1N=CC(CC)C1c1ccccc1 (single isomer, unassigned) [trans-(+)-153] | – | 126 | –
8 | CCN/C(=N\S(=O)(=O)c1cccc(Cl)c1)N1N=CC(CC)C1c1ccccc1 (single isomer, unassigned) [trans-(−)-153] | – | 398 | –
9 | CCC1C=NN(/C(N)=N/S(=O)(=O)c2c(Cl)nc3sccn23)C1 (single isomer, unassigned; (+)) [(+)123] | 146 to 147 | – | –
10 | CCN/C(=N\S(=O)(=O)c1c(Cl)nc2sccn12)N1CC(CC)C=N1 (single isomer, unassigned; (+)) [(+)-41] | – | – | Kb (5-HT6 receptor [2]; [4]): 1.26 nM
11 | CCC1C=NN(/C(N)=N/S(=O)(=O)c2c(Cl)nc3sccn23)C1 (single isomer, unassigned; (-)) [(−)-123] | 176 to 178 | – | –
12 | CCC1C=NN(/C(=N/S(=O)(=O)c2ccccc2Cl)N(CC)CC)C1 (stereo not drawn) [compound 1] | – | – | Kb (5-HT6 receptor [2]): 316 nM
13 | CCN/C(=N\S(=O)(=O)c1ccccc1Cl)N1CC(CC)C=N1 (stereo not drawn) [compound 2, 2-Chloro-N-[ethylamino-(4-ethyl-4,5-dihydro-pyrazol-1-yl)-methylene]-benzenesulfon-amide] | – | 50.1 | Kb (5-HT6 receptor [2]; [4]): 3.16 nM
14 | CCC1C=NN(/C(N)=N/S(=O)(=O)c2ccccc2Cl)C1 (stereo not drawn) [compound 3] | 161 to 163 | – | –
15 | CCC1C=NN(/C(=N/S(=O)(=O)c2ccccc2Cl)N(C)C)C1 (stereo not drawn) [compound 5] | 94 to 95 | – | –
16 | CCC1C=NN(/C(=N/S(=O)(=O)c2ccccc2Cl)NCC2CCNCC2)C1 (stereo not drawn) [compound 11] | 131 to 138 | – | –
17 | CCC1C=NN(/C(=N/S(=O)(=O)c2ccccc2Cl)Nc2ccccc2)C1 (stereo not drawn) [compound 12] | 128 to 130 | – | –

Row | SMILES | melting point [°C] | Ki (5-HT6 receptor [1]; [3]) [nM] | further results
18 | CCC1C=NN(/C(=N/S(=O)(=O)c2ccccc2Cl)NCc2ccccc2)C1 (stereo not drawn) [compound 13] | – | 79.4 | Kb (5-HT6 receptor [2]; [4]): 200 nM
19 | CCN/C(=N\S(=O)(=O)c1ccccc1)N1CC(CC)C=N1 (stereo not drawn) [compound 24] | 43 to 45 | – | –
20 | CCN/C(=N\S(=O)(=O)c1cccc(Cl)c1)N1CCC=N1 [compound 28] | – | 20 | 5-HT6 pA2 (5-HT6 receptor [2]; [5]): 7.1; Kb (5-HT6 receptor [2]; [4]): 20 nM
21 | CCC1C=NN(/C(N)=N/S(=O)(=O)c2cccc(Cl)c2)C1 (stereo not drawn) [compound 29] | 141 to 142 | – | –
22 | CCC1C=NN(/C(N)=N/S(=O)(=O)c2ccc(C)cc2)C1 (stereo not drawn) [compound 31] | 131 to 133 | – | –
23 | CCN/C(=N\S(=O)(=O)c1cccc(Cl)c1)N1CC(C)(C)C=N1 [compound 33, 3-Chloro-N-[(4,4-dimethyl-4,5-dihydro-pyrazol-1-yl)-ethylamino-methylene]-benzenesulfonamide] | – | 15.8 | Kb (5-HT6 receptor [2]; [4]): 12.6 nM
24 | CCN/C(=N\S(=O)(=O)c1cccc(Cl)c1)N1CCC(C)=N1 [compound 42] | – | – | Ki (5-HT6 receptor [1]; 5-HT6 pKi): 200 nM; 5-HT6 pA2 (5-HT6 receptor [2]; [5]): 6.9
25 | CCN/C(=N\S(=O)(=O)c1cccs1)N1CC(CC)C=N1 (stereo not drawn) [compound 51] | – | 126 | Kb (5-HT6 receptor [2]; [4]): 200 nM
26 | CCN/C(=N\S(=O)(=O)c1cccc2nsnc12)N1CC(CC)C=N1 (stereo not drawn) [compound 78, Benzo[1,2,5]thiadiazole-4-sulfonic acid ethylamino-(4-ethyl-4,5-dihydro-pyrazol-1-yl)-methyleneamide] | – | 63.1 | Kb (5-HT6 receptor [2]; [4]): 79.4 nM
27 | CCN/C(=N\S(=O)(=O)/C=C/c1ccccc1)N1CC(CC)C=N1 (stereo not drawn) [compound 83] | – | 79.4 | Kb (5-HT6 receptor [2]; [4]): 63.1 nM
28 | CCN/C(=N\S(=O)(=O)c1cc2ccccc2s1)N1CC(CC)C=N1 (stereo not drawn) [compound 89] | – | 5.01 | Kb (5-HT6 receptor [2]; [4]): 0.794 nM
29 | N/C(=N\S(=O)(=O)c1cccc(Cl)c1)N1CC2(C=N1)CCCC2 [compound 97] | 146 to 147 | – | –
30 | CC1(C)C=NN(/C(N)=N/S(=O)(=O)c2ccc(Cl)s2)C1 [compound 102] | 162 to 164 | – | –
31 | CN/C(=N\S(=O)(=O)c1ccc(Cl)s1)N1CC(C)(C)C=N1 [compound 103] | – | 79.4 | Kb (5-HT6 receptor [2]; [4]): 50.1 nM
32 | CCC1C=NN(/C(N)=N/S(=O)(=O)c2ccc(Cl)s2)C1 (stereo not drawn) [compound 105] | 115 to 116 | – | –
33 | N/C(=N\S(=O)(=O)c1ccc(Cl)s1)N1CC2(C=N1)CCCC2 [compound 107] | 184 | – | –
34 | CCC1CN(/C(=N/S(=O)(=O)c2cccc(Cl)c2)NC)N=C1C (stereo not drawn) [compound 109] | 155 to 156 | – | –
